Like-named read-outs stand apart in the source and are kept apart here.

Common to all, as to experiment: cells
For assay [1], the system named is PK1 neuroblastoma cells treated with TPrP. The format is cell-based. To be noted: for EC50: Neuroblastoma cell, read-out: Viability EC50.
For assay [2] the test system is unchanged. The format is cell-based. The conditions noted are these: Neuroblastoma cell, read-out: NAD EC50.
The subject of another assay is Cells exposed to TPrP. The conditions noted are these: read-out: Viability EC50.

Take `COc1ccc(-c2cc(=O)c3c(O)cc(OC)c(OC)c3o2)c(OC)c1` [SR5-2616, 2-(2,4-dimethoxyphenyl)-5-hydroxy-7,8-dimethoxy-4H-chromen-4-one]: the figures for the EC50 in assay [1] and in assay [2] were 1600 nM and 2100 nM, respectively.
On to `CC1=C[C@@H]2c3cccc4[nH]cc(c34)C[C@H]2N(C)C1` [SR1-75354, agroclavine], for which the EC50 in assay [1] stood at 1600 nM; in assay [2] it was 2000 nM.
Regarding `NS(=O)(=O)c1ccc(Nc2nc(-c3cccnc3)cs2)cc1` [SR1-809850], the EC50 is 88 nM in assay [1] and 337 nM in assay [2].
For `Cc1ccc(-c2nnc3c4ccccc4c(C)nn23)cc1S(=O)(=O)NCCO` [SR1-87813], the EC50 worked out at 156 nM in assay [1] and 733 nM in assay [2].
On the same counts, the results for `COCCNS(=O)(=O)c1cc(-c2nnc3c4ccccc4c(C)nn23)ccc1C` [SR5-22841] are 130 nM and 688 nM.
As to `COc1ccc(-c2cc(=O)c3c(O)c(OC)c(O[C@H]4O[C@H](CO[C@@H]5O[C@@H](C)[C@H](O)[C@@H](O)[C@H]5O)[C@@H](O)[C@H](O)[C@H]4O)cc3o2)cc1` [SR5-2766, pectolinargenin 7-[6-O-(6-deoxy-α-L-mannopyranosyl)-β-D-glucopyranosyl] ether], the EC50 in assay [1] stood at 2100 nM; in assay [2] it was 4000 nM.
`Cc1ccc(-c2nnc3c4ccccc4c(C)nn23)cc1S(=O)(=O)NCc1cccnc1` [SR5-22839]: the figures for the EC50 in assay [1] and in assay [2] were 28 nM and 92 nM, respectively.
Taken in the same sequence, the figures for `NS(=O)(=O)c1ccc(Nc2nc(-c3cc4ccccc4oc3=O)cs2)cc1` [SR1-22833] were 57 nM and 245 nM.
Take `NS(=O)(=O)c1ccc(Nc2nc(-c3ccc4ccccc4c3)cs2)cc1` [SR1-281377]: the EC50 worked out at 192 nM in assay [1] and 1200 nM in assay [2].
Taken in the same sequence, the figures for `COc1ccc2c(c1)[nH]c1c(C)nccc12` [SR5-1527, methoxy harman] were 1800 nM and 14000 nM.
In the case of `Cc1ccc(-c2nnc3c4ccccc4c(C)nn23)cc1S(=O)(=O)N1CCN(C)CC1` [SR1-115275], the EC50 in assay [1] was found to be 839 nM; in assay [2] it was 2600 nM.
For the compound `COc1cc2nccc(Oc3ccc(NC(=O)NC4CC4)c(Cl)c3)c2cc1C(N)=O` [lenvatinib, reference compound], the “neuroprotective activity in the TPrP assay” value (from here on “neuroprotective activity”) in assay [1] is on record as “entirely lacked neuroprotective activity”.
For `CNC(=O)c1cc(Oc2ccc(NC(=O)Nc3ccc(Cl)c(C(F)(F)F)c3)cc2)ccn1` [sorafenib, reference compound], the “neuroprotective activity” value in assay [1] is “entirely lacked neuroprotective activity”.
In the case of `NS(=O)(=O)c1ccc(Nc2nc(-c3ccncc3)c(CO)s2)cc1` [SR-28550], in the assay with Cells exposed to TPrP, the EC50 worked out at 60 nM.
Consider `COc1ccc(-c2cc(C(F)(F)F)n3ncc(C(=O)NCCn4ccnc4)c3n2)cc1` [SR3-5290], for which the EC50 in the assay with Cells exposed to TPrP is greater than 32 nM.
Take `O=S(=O)(c1ccc(Nc2nc(-c3ccncc3)cs2)cc1)N1CCCCC1` [SR-28546]: the EC50 in the assay with Cells exposed to TPrP was 400 nM.
`CCCCNS(=O)(=O)c1ccc(Nc2nc(-c3sc(C)nc3C)cs2)cc1` [SR-27809]: the EC50 in the assay on Cells exposed to TPrP was greater than 500 nM.
Same read-out and setting: as for `COc1ccc(-c2cc(C(F)(F)F)n3nc(C)c(C(=O)NCCCn4ccnc4C)c3n2)cc1` [SR0-29250], the figure is 3.6 nM; as for `COc1cc(-c2cc(C)n3ncc(C(=O)NCCCn4ccnc4C)c3n2)cc(OC)c1OC` [SR0-29248], 4 nM.
The same measure, in the same setting: in the case of `Cc1ccc(NS(=O)(=O)c2ccc(Nc3nc(-c4ccncc4)cs3)cc2)cc1` [SR-29446] it was greater than 500 nM; in that of `c1ccc2c(c1)CC(Nc1nnc(Cc3ccncc3)c3ccccc13)CO2` (centres unmarked) [SR-27889], 200 nM; in that of `CCc1c(C(=O)O)ncc2[nH]c3cc(OC)c(OC)cc3c12` [SR26266], greater than 4000 nM.
Still for that read-out and setting: in the case of `Cc1cc(-c2ccc3c(c2)OCO3)nc2c(C(=O)NCCCn3ccnc3S(C)(=O)=O)cnn12` [SR0-31110] it was greater than 50 nM.
`COc1cc2nccc(Oc3ccc(NC(=O)Nc4cc(C)on4)c(Cl)c3)c2cc1OC` [tivozanib, reference compound]: the “neuroprotective activity” value in assay [1] is recorded as “entirely lacked neuroprotective activity”.

The record behind these values is US12590094B2, “Compounds for the treatment of neurodegenerative and metabolic disorders” (UNIVERSITY OF FLORIDA RESEARCH FOUNDATION, INCORPORATED, priority 2019, dated 2026).
